Assay results as given in the NIST ThermoML archive (doi:10.1021/acs.jced.6b00718).

Assays:
[1] = for viscosity / mass density: 101 kPa; for viscosity / mass density / electrical conductivity: Liquid; for viscosity: Falling or rolling sphere viscometry; for mass density: Vibrating tube method; for electrical conductivity: 101.33 kPa, Alternating current cell with electrodes; for Normal melting temperature: DTA
[2] = xn = mol fraction of the nth substance listed; conditions: 101 kPa, Liquid, x1 = 1; for viscosity: Falling or rolling sphere viscometry; for mass density: Vibrating tube method

CCCC[N+]1(C)CCCC1.O=S(=O)([N-]S(=O)(=O)C(F)(F)F)C(F)(F)F
[1]
Conditions	Normal melting temperature [°C]	electrical conductivity [S/m]	mass density [kg/m3]	viscosity [mPa·s]
293.15 K	–	–	1399.8	98.72
293.4 K	–	0.22	–	–
296.1 K	–	0.249	–	–
298.15 K	–	–	1395.2	77.66
299.3 K	–	0.285	–	–
303.15 K	–	–	1390.7	62.29
303.3 K	–	0.334	–	–
309.3 K	–	0.419	–	–
313.15 K	–	–	1381.7	41.87
313.2 K	–	0.481	–	–
320 K	–	0.6	–	–
323.15 K	–	–	1372.8	29.61
323.2 K	–	0.66	–	–
333.15 K	–	–	1363.8	21.82
333.5 K	–	0.88	–	–
Metastable crystal	-20	–	–	–

N#CCCCCC#N [hexanedinitrile]
[1]
Conditions	Normal melting temperature [°C]	mass density [kg/m3]	viscosity [mPa·s]
293.15 K	–	962.3	7.17
298.15 K	–	958.6	6.31
303.15 K	–	954.8	5.53
313.15 K	–	947.2	4.54
323.15 K	–	939.8	3.73
333.15 K	–	932.3	3.02
Crystal	6.2	–	–

CCCC#N [butanenitrile]
[1]
Conditions	mass density [kg/m3]	viscosity [mPa·s]
293.15 K	791.1	0.88
298.15 K	786.4	0.86
303.15 K	781.8	0.84
313.15 K	772.4	0.81
323.15 K	763	0.78
333.15 K	753.5	0.75

CCCC[N+]1(C)CCCC1.O=S(=O)([N-]S(=O)(=O)C(F)(F)F)C(F)(F)F + N#CCCCC#N
[2]
Conditions	mass density [kg/m3]	viscosity [mPa·s]
293.15 K	1399.8	98.72
298.15 K	1395.2	77.66
303.15 K	1390.7	62.29
313.15 K	1381.7	41.87
323.15 K	1372.8	29.61
333.15 K	1363.8	21.82

N#CCCCC#N [pentanedinitrile]
[1]
Conditions	mass density [kg/m3]	viscosity [mPa·s]
293.15 K	987	6.97
298.15 K	983.1	6.12
303.15 K	979.1	5.39
313.15 K	971.2	4.25
323.15 K	963.4	3.47
333.15 K	955.6	2.88

CCCC[N+]1(C)CCCC1.O=S(=O)([N-]S(=O)(=O)C(F)(F)F)C(F)(F)F + CCCC#N
[2]
Conditions	mass density [kg/m3]	viscosity [mPa·s]
293.15 K	1399.8	98.72
298.15 K	1395.2	77.66
303.15 K	1390.7	62.29
313.15 K	1381.7	41.87
323.15 K	1372.8	29.61
333.15 K	1363.8	21.82

CCCC[N+]1(C)CCCC1.O=S(=O)([N-]S(=O)(=O)C(F)(F)F)C(F)(F)F + N#CCCCCC#N
[2]
Conditions	mass density [kg/m3]	viscosity [mPa·s]
293.15 K	1399.8	98.72
298.15 K	1395.2	77.66
303.15 K	1390.7	62.29
313.15 K	1381.7	41.87
323.15 K	1372.8	29.61
333.15 K	1363.8	21.82
